This note sets out measurements from PMC5218480 (PLoS ONE, 2017).

The assay relates to MV-4-11 cells. The assay is described as follows: Gene expression microarray analysis (Affymetrix PrimeView) and GSEA. The assay is classed as cell-based, human. Further details: RFU PODN (11730768_x_at) / Fold change /veh PODN (11730768_x_at) / RFU LINC00158 (11744669_a_at) / Fold change /veh LINC00158 (11744669_a_at) / RFU DUSP10 (11751237_a_at) / Fold change /veh DUSP10 (11751237_a_at) / RFU ID3 (11757404_x_at) / Fold change /veh ID3 (11757404_x_at) / RFU PLEKHG5 (11737974_s_at) / Fold change /veh PLEKHG5 (11737974_s_at) / RFU LRRC4B (11730491_at) / Fold change /veh LRRC4B (11730491_at) / RFU GIMAP4 (11747438_a_at) / Fold change /veh GIMAP4 (11747438_a_at) / RFU KRT8 (11758183_x_at) / Fold change /veh KRT8 (11758183_x_at) / RFU CNN1 (11734310_a_at) / Fold change /veh CNN1 (11734310_a_at) / RFU VPS37D (11726825_at) / Fold change /veh VPS37D (11726825_at) / RFU C10orf10 (11716522_x_at) / Fold change /veh C10orf10 (11716522_x_at) / RFU KIR2DL2 /// KIR2DL4 /// KIR2DL5A /// KIR2DL5B /// KIR2DS1 /// KIR2DS2 /// KIR2DS3 /// KIR2DS4 /// KIR3DL3 /// KIR3DL3 /// KIR3DS1 (11738374_at) / Fold change /veh KIR2DL2 /// KIR2DL4 /// KIR2DL5A /// KIR2DL5B /// KIR2DS1 /// KIR2DS2 /// KIR2DS3 /// KIR2DS4 /// KIR3DL3 /// KIR3DL3 /// KIR3DS1 (11738374_at) / RFU C1QL1 (11718748_at) / Fold change /veh C1QL1 (11718748_at) / RFU TMPRSS4 (11747572_a_at) / Fold change /veh TMPRSS4 (11747572_a_at) / RFU HAMP (11756126_x_at) / Fold change /veh HAMP (11756126_x_at) / RFU RNFT2 (11725882_a_at) / Fold change /veh RNFT2 (11725882_a_at) / RFU NR4A2 (11747474_a_at) / Fold change /veh NR4A2 (11747474_a_at) / RFU ABCC12 (11746883_a_at) / Fold change /veh ABCC12 (11746883_a_at) / RFU TMEM136 (11760407_x_at) / Fold change /veh TMEM136 (11760407_x_at) / RFU CLDN22 /// WWC2 (11732394_at) / Fold change /veh CLDN22 /// WWC2 (11732394_at) / RFU HLA-DPB1 (11760878_x_at) / Fold change /veh HLA-DPB1 (11760878_x_at) / RFU SPINT1 (11716480_a_at) / Fold change /veh SPINT1 (11716480_a_at) / RFU GAP43 (11754022_s_at) / Fold change /veh GAP43 (11754022_s_at) / RFU A4GNT (11735810_at) / Fold change /veh A4GNT (11735810_at) / RFU PRB3 (11715151_x_at) / Fold change /veh PRB3 (11715151_x_at) / RFU TUBB4B (11761932_at) / Fold change /veh TUBB4B (11761932_at) / RFU CAPN14 (11732068_a_at) / Fold change /veh CAPN14 (11732068_a_at) / RFU TMCC2 (11721928_a_at) / Fold change /veh TMCC2 (11721928_a_at) / RFU IRGQ (11745062_a_at) / Fold change /veh IRGQ (11745062_a_at) / RFU FAM174B (11720279_a_at) / Fold change /veh FAM174B (11720279_a_at) / RFU TMPRSS4 (11748680_a_at) / Fold change /veh TMPRSS4 (11748680_a_at) / RFU FAM212B (11763350_a_at) / Fold change /veh FAM212B (11763350_a_at) / RFU PLEKHG5 (11743358_a_at) / Fold change /veh PLEKHG5 (11743358_a_at) / RFU ZSCAN30 (11745921_a_at) / Fold change /veh ZSCAN30 (11745921_a_at) / RFU CMKLR1 (11741424_a_at) / Fold change /veh CMKLR1 (11741424_a_at) / RFU LOC101060620 /// MAPK8IP1 (11723275_at) / Fold change /veh LOC101060620 /// MAPK8IP1 (11723275_at) / RFU SPTSSB (11747773_x_at) / Fold change /veh SPTSSB (11747773_x_at) / RFU PRSS12 (11739890_at) / Fold change /veh PRSS12 (11739890_at) / RFU BIN1 (11741810_x_at) / Fold change /veh BIN1 (11741810_x_at) / RFU WNT11 (11732464_a_at) / Fold change /veh WNT11 (11732464_a_at) / RFU C10orf10 (11716521_a_at) / Fold change /veh C10orf10 (11716521_a_at) / RFU C5orf56 (11738089_at) / Fold change /veh C5orf56 (11738089_at) / RFU CYB561 (11721691_x_at) / Fold change /veh CYB561 (11721691_x_at) / RFU ANKRD19P (11752326_a_at) / Fold change /veh ANKRD19P (11752326_a_at) / RFU OR2T12 /// OR2T33 /// OR2T8 (11738714_s_at) / Fold change /veh OR2T12 /// OR2T33 /// OR2T8 (11738714_s_at) / RFU VCAN (11748164_a_at) / Fold change /veh VCAN (11748164_a_at) / RFU JSRP1 (11732532_at) / Fold change /veh JSRP1 (11732532_at) / RFU KRTAP10-11 (11738290_x_at) / Fold change /veh KRTAP10-11 (11738290_x_at) / RFU MYO3A (11730013_a_at) / Fold change /veh MYO3A (11730013_a_at) / RFU EBF3 (11725865_a_at) / Fold change /veh EBF3 (11725865_a_at) / RFU CAMK2N1 (11719241_x_at) / Fold change /veh CAMK2N1 (11719241_x_at) / RFU C5orf56 (11738088_a_at) / Fold change /veh C5orf56 (11738088_a_at) / RFU OLFML3 (11715873_a_at) / Fold change /veh OLFML3 (11715873_a_at) / RFU LOC100653217 /// NTM (11731650_a_at) / Fold change /veh LOC100653217 /// NTM (11731650_a_at) / RFU MAPK11 (11762145_a_at) / Fold change /veh MAPK11 (11762145_a_at) / RFU FIZ1 (11724087_x_at) / Fold change /veh FIZ1 (11724087_x_at) / RFU OASL (11726364_x_at) / Fold change /veh OASL (11726364_x_at) / RFU SOX15 (11748057_x_at) / Fold change /veh SOX15 (11748057_x_at) / RFU CD79A (11719716_a_at) / Fold change /veh CD79A (11719716_a_at) / RFU HIST1H1D (11736915_at) / Fold change /veh HIST1H1D (11736915_at) / RFU CASKIN2 (11723855_a_at) / Fold change /veh CASKIN2 (11723855_a_at) / RFU LOC730098 (11760151_x_at) / Fold change /veh LOC730098 (11760151_x_at) / RFU OR4N2 (11742367_at) / Fold change /veh OR4N2 (11742367_at) / RFU PRRT2 (11749266_a_at) / Fold change /veh PRRT2 (11749266_a_at) / RFU SNX32 (11753110_a_at) / Fold change /veh SNX32 (11753110_a_at) / RFU CDHR5 (11726645_a_at) / Fold change /veh CDHR5 (11726645_a_at) / RFU RCAN1 (11760418_a_at) / Fold change /veh RCAN1 (11760418_a_at) / RFU FAM167A (11723789_a_at) / Fold change /veh FAM167A (11723789_a_at) / RFU FAM26E (11764081_at) / Fold change /veh FAM26E (11764081_at) / RFU ISYNA1 (11749810_s_at) / Fold change /veh ISYNA1 (11749810_s_at) / RFU ACY1 (11761880_at) / Fold change /veh ACY1 (11761880_at) / RFU 11764098_at / Fold change /veh 11764098_at / RFU SAMD14 (11745864_x_at) / Fold change /veh SAMD14 (11745864_x_at) / RFU NPB (11741838_a_at) / Fold change /veh NPB (11741838_a_at) / RFU TMPRSS6 (11731388_a_at) / Fold change /veh TMPRSS6 (11731388_a_at) / RFU KRTAP10-2 (11738614_at) / Fold change /veh KRTAP10-2 (11738614_at) / RFU ARHGAP8 /// PRR5-ARHGAP8 (11727945_x_at) / Fold change /veh ARHGAP8 /// PRR5-ARHGAP8 (11727945_x_at) / RFU KRTAP5-7 /// NADSYN1 (11734609_at) / Fold change /veh KRTAP5-7 /// NADSYN1 (11734609_at) / RFU RASL12 (11751679_a_at) / Fold change /veh RASL12 (11751679_a_at) / RFU CDKN2B (11736163_a_at) / Fold change /veh CDKN2B (11736163_a_at) / RFU PRF1 (11729649_at) / Fold change /veh PRF1 (11729649_at) / RFU, ZNF638 /// ZNF638-IT1 / Fold change vs veh, ZNF638 /// ZNF638-IT1 / RFU, PANK3 / Fold change vs veh, PANK3 / RFU, SH3YL1 / Fold change vs veh, SH3YL1 / RFU, ZEB2 / Fold change vs veh, ZEB2 / RFU, NRIP1 / Fold change vs veh, NRIP1 / RFU, PTTG1IP / Fold change vs veh, PTTG1IP / RFU, CAPN2 / Fold change vs veh, CAPN2 / RFU, MED14 / Fold change vs veh, MED14 / RFU, SNORA58 / Fold change vs veh, SNORA58 / RFU, C1orf63 / Fold change vs veh, C1orf63 / RFU, LRRFIP1 / Fold change vs veh, LRRFIP1 / RFU, NDUFAF7 / Fold change vs veh, NDUFAF7 / RFU, SLC12A2 / Fold change vs veh, SLC12A2 / RFU, IBTK / Fold change vs veh, IBTK / RFU, ESF1 / Fold change vs veh, ESF1 / Fold change vs veh, TMEM50B / RFU, TAOK1 / Fold change vs veh, TAOK1 / RFU, ACBD3 / Fold change vs veh, ACBD3 / RFU, TMA16 / Fold change vs veh, TMA16 / RFU, RWDD3 / Fold change vs veh, RWDD3 / RFU, BCAT1 / Fold change vs veh, BCAT1 / RFU, EDEM3 / Fold change vs veh, EDEM3 / RFU, TMEM33 / Fold change vs veh, TMEM33 / RFU, WDR75 / Fold change vs veh, WDR75 / RFU, AHCTF1 / Fold change vs veh, AHCTF1 / RFU, TFRC / Fold change vs veh, TFRC / RFU, ZDHHC17 / Fold change vs veh, ZDHHC17 / RFU, NOM1 / Fold change vs veh, NOM1 / RFU, ARL8B / Fold change vs veh, ARL8B / RFU, ZBTB11 / Fold change vs veh, ZBTB11 / RFU, TAMM41 / Fold change vs veh, TAMM41 / RFU, KIAA1704 /// LOC100996395 / Fold change vs veh, KIAA1704 /// LOC100996395 / RFU, ING1 / Fold change vs veh, ING1 / RFU, TRMT61B / Fold change vs veh, TRMT61B / RFU, FUBP3 / Fold change vs veh, FUBP3 / RFU, TP53 / Fold change vs veh, TP53 / RFU, TNKS2 / Fold change vs veh, TNKS2 / RFU, ZFP14 / Fold change vs veh, ZFP14 / RFU, ACTR2 / Fold change vs veh, ACTR2 / RFU, PPP3R1 / Fold change vs veh, PPP3R1 / RFU, PIK3R1 / Fold change vs veh, PIK3R1 / RFU, HNRNPA1 / Fold change vs veh, HNRNPA1 / RFU, RNF170 / Fold change vs veh, RNF170 / RFU, ZNF28 / Fold change vs veh, ZNF28 / RFU, RNGTT / Fold change vs veh, RNGTT / RFU, OGT / Fold change vs veh, OGT / RFU, BRD1 / Fold change vs veh, BRD1 / RFU, MARS / Fold change vs veh, MARS / RFU, ZNF655 / Fold change vs veh, ZNF655 / RFU, FAHD1 / Fold change vs veh, FAHD1 / RFU, BDP1 / Fold change vs veh, BDP1 / RFU, LRRCC1 / Fold change vs veh, LRRCC1 / RFU, ARID1A / Fold change vs veh, ARID1A / RFU, ZNF146 / Fold change vs veh, ZNF146 / RFU, ZNF330 / Fold change vs veh, ZNF330 / RFU, GPN3 / Fold change vs veh, GPN3 / RFU, C9orf123 / Fold change vs veh, C9orf123 / RFU, N4BP2L2 / Fold change vs veh, N4BP2L2 / RFU, ARFIP1 / Fold change vs veh, ARFIP1 / RFU, FAM179B / Fold change vs veh, FAM179B / RFU, BCL10 / Fold change vs veh, BCL10 / RFU, UHRF1BP1L / Fold change vs veh, UHRF1BP1L / RFU, BET1 / Fold change vs veh, BET1 / RFU, CNOT2 / Fold change vs veh, CNOT2 / RFU, ZNF268 / Fold change vs veh, ZNF268 / Fold change vs veh, ZNF507 / RFU, DGCR2 / Fold change vs veh, DGCR2 / RFU, WDSUB1 / Fold change vs veh, WDSUB1 / Fold change vs veh, HSP90B1 /// MIR3652 / RFU, ADSS / Fold change vs veh, ADSS / RFU, GK / Fold change vs veh, GK / RFU, ZNF148 / Fold change vs veh, ZNF148 / RFU, TAF9 / Fold change vs veh, TAF9 / RFU, SLC1A5 / Fold change vs veh, SLC1A5 / RFU, SLMO2 / Fold change vs veh, SLMO2 / RFU, ABCC4 / Fold change vs veh, ABCC4 / RFU, LOC101060439 /// RAP1B / Fold change vs veh, LOC101060439 /// RAP1B / RFU, RFX7 / Fold change vs veh, RFX7 / RFU, GTPBP10 / Fold change vs veh, GTPBP10 / RFU, CNEP1R1 / Fold change vs veh, CNEP1R1 / RFU, BIVM-ERCC5 /// ERCC5 / Fold change vs veh, BIVM-ERCC5 /// ERCC5 / RFU, ILF3 / Fold change vs veh, ILF3 / RFU 11762660_at / Fold change /veh 11762660_at / RFU VCAN (11757783_s_at) / Fold change /veh VCAN (11757783_s_at) / RFU DDX43 (11728927_at) / Fold change /veh DDX43 (11728927_at) / RFU KRT8 (11758188_x_at) / Fold change /veh KRT8 (11758188_x_at) / RFU NKD1 (11759106_at) / Fold change /veh NKD1 (11759106_at) / RFU SRD5A1 (11742802_a_at) / Fold change /veh SRD5A1 (11742802_a_at) / RFU TPSAB1 /// TPSB2 (11721975_s_at) / Fold change /veh TPSAB1 /// TPSB2 (11721975_s_at) / RFU GSTM3 (11746129_a_at) / Fold change /veh GSTM3 (11746129_a_at) / RFU IL23R (11737362_x_at) / Fold change /veh IL23R (11737362_x_at) / RFU TMEM51 (11727254_a_at) / Fold change /veh TMEM51 (11727254_a_at) / RFU PIWIL2 (11732686_x_at) / Fold change /veh PIWIL2 (11732686_x_at) / RFU ORM1 (11744905_x_at) / Fold change /veh ORM1 (11744905_x_at) / RFU CCDC152 (11743942_at) / Fold change /veh CCDC152 (11743942_at) / RFU ECM1 (11717891_a_at) / Fold change /veh ECM1 (11717891_a_at) / RFU IL23R (11748794_a_at) / Fold change /veh IL23R (11748794_a_at) / RFU TNFAIP8L3 (11732012_x_at) / Fold change /veh TNFAIP8L3 (11732012_x_at) / RFU MBOAT4 (11741988_at) / Fold change /veh MBOAT4 (11741988_at) / RFU 11764193_at / Fold change /veh 11764193_at / RFU TMEM53 (11763286_at) / Fold change /veh TMEM53 (11763286_at) / RFU MAGEB2 (11727129_at) / Fold change /veh MAGEB2 (11727129_at) / RFU TMEM200A (11744735_a_at) / Fold change /veh TMEM200A (11744735_a_at) / RFU CCDC152 (11751479_a_at) / Fold change /veh CCDC152 (11751479_a_at) / RFU FAM211A (11726209_a_at) / Fold change /veh FAM211A (11726209_a_at) / RFU RGS16 (11746705_a_at) / Fold change /veh RGS16 (11746705_a_at) / RFU VCAN (11755009_s_at) / Fold change /veh VCAN (11755009_s_at) / RFU RHOB (11743442_s_at) / Fold change /veh RHOB (11743442_s_at) / RFU RGS16 (11720943_a_at) / Fold change /veh RGS16 (11720943_a_at) / RFU RGS16 (11720944_at) / Fold change /veh RGS16 (11720944_at) / RFU, VPS4B / Fold change vs veh, VPS4B / RFU, CREB1 / Fold change vs veh, CREB1 / RFU, DNAJC13 / Fold change vs veh, DNAJC13 / RFU, GNAQ / Fold change vs veh, GNAQ / RFU, CDK5R1 / Fold change vs veh, CDK5R1 / RFU, ZRANB3 / Fold change vs veh, ZRANB3 / RFU, CUL4A / Fold change vs veh, CUL4A / RFU, CCNY / Fold change vs veh, CCNY / RFU, UFL1 / Fold change vs veh, UFL1 / RFU, COG3 / Fold change vs veh, COG3 / RFU, DIAPH2 / Fold change vs veh, DIAPH2 / RFU, SKA2 / Fold change vs veh, SKA2 / RFU, AFF3 / Fold change vs veh, AFF3 / RFU, LMF1 / Fold change vs veh, LMF1 / RFU, IPO11 / Fold change vs veh, IPO11 / RFU, DFFB / Fold change vs veh, DFFB / RFU, FOXP1 / Fold change vs veh, FOXP1 / RFU, CARD8 / Fold change vs veh, CARD8 / RFU, STRN3 / Fold change vs veh, STRN3 / RFU, ADK / Fold change vs veh, ADK / RFU, RASSF2 / Fold change vs veh, RASSF2 / RFU, WIPF1 / Fold change vs veh, WIPF1 / RFU, LARP1B / Fold change vs veh, LARP1B / RFU, RASA1 / Fold change vs veh, RASA1 / RFU, RB1 / Fold change vs veh, RB1 / RFU, PPFIA1 / Fold change vs veh, PPFIA1 / RFU, MAT2A / Fold change vs veh, MAT2A / RFU, CCT5 / Fold change vs veh, CCT5 / RFU, WDR92 / Fold change vs veh, WDR92 / RFU, CUX1 / Fold change vs veh, CUX1 / RFU, TTC7A / Fold change vs veh, TTC7A / RFU, TMEM135 / Fold change vs veh, TMEM135 / RFU, DEPTOR / Fold change vs veh, DEPTOR / RFU, CPM / Fold change vs veh, CPM / RFU, DNAJB6 / Fold change vs veh, DNAJB6 / RFU, CACNA2D3 / Fold change vs veh, CACNA2D3 / RFU, DTX4 / Fold change vs veh, DTX4 / RFU, TFCP2 / Fold change vs veh, TFCP2 / RFU, GMCL1 /// GMCL1P1 / Fold change vs veh, GMCL1 /// GMCL1P1 / RFU, AEBP2 / Fold change vs veh, AEBP2 / RFU, SNHG1 /// SNORD22 /// SNORD25 /// SNORD26 /// SNORD27 /// SNORD28 /// SNORD29 /// SNORD31 / Fold change vs veh, SNHG1 /// SNORD22 /// SNORD25 /// SNORD26 /// SNORD27 /// SNORD28 /// SNORD29 /// SNORD31 / Fold change (Aza/veh), C12orf56 (ProbeSet 11735607_a_at) / Fold change (ACY-1035/veh), C12orf56 (ProbeSet 11735607_a_at) / Fold change (Aza/veh), FGFR1OP (ProbeSet 11751329_s_at) / Fold change (ACY-1035/veh), FGFR1OP (ProbeSet 11751329_s_at) / Fold change (Aza/veh), VPS36 (ProbeSet 11739960_a_at) / Fold change (ACY-1035/veh), VPS36 (ProbeSet 11739960_a_at) / RFU SYPL1 (11715823_x_at) / Fold change /veh SYPL1 (11715823_x_at) / RFU IGFBP7 (11715501_s_at) / Fold change /veh IGFBP7 (11715501_s_at) / RFU REEP3 (11722064_at) / Fold change /veh REEP3 (11722064_at) / RFU IGLL1 (11728026_x_at) / Fold change /veh IGLL1 (11728026_x_at): dose or concentration left out as unconfirmed. Particulars: ProbeSet 11763166_a_at; LIST B.

Each structure is given as a SMILES string.

Take `Nc1ccc(-c2cccs2)cc1NC(=O)c1ccc2c(c1)cc(C1CC1)n2CCN1CCOCC1` [ACY-1035]: the “Fold change vs veh, MARS” value is on record as 1.14.
